The values that follow come from article PMC5355835 (Chemical Science, 2016).

The nature of data set [1]: Stability assay under reductive conditions. It counts as physicochemical. Particulars: PBS buffer with 1.0 mM L-glutathione, pH 7.
A short description of data set [2]: Stability assay in human serum. Format: in vitro ADME. Particulars: male, 37 °C.
Data set [3] is described as follows: Temperature and pH stability assay in phosphate buffers. Format: physicochemical. Conditions: 50 mM phosphate buffer; for half-life at 0.1 mg/mL: phosphate buffer.

Molecule `CC[C@H](C)[C@@H]1NC(=O)[C@H](Cc2ccc(O)cc2)NC(=O)[C@@H](N)CSSC[C@@H](C(=O)N2CCC[C@H]2C(=O)N[C@@H](CC(C)C)C(=O)NCC(N)=O)NC(=O)[C@H](CC(N)=O)NC(=O)[C@H](CCC(N)=O)NC1=O` [OXT, oxytocin] had a half-life at 9.9 µM in data set [1] of 8 h. Also, in data set [2], the half-life at 0.45 mM is 28.8 h. Besides, the half-life in data set [3] (pH 2.0, 40 °C) was found to be 14 ± 0.9 days; in data set [3] (pH 4.5, 40 °C) it was 121 ± 6.2 days. For the same molecule, the half-life at 0.1 mg/mL in data set [3] (pH 2, half-life, pH 2.0, 55 °C) was 76.8 h; in data set [3] (pH 4.5, half-life, pH 4.5, 55 °C), 432 h; in data set [3] (pH 7, half-life, pH 7.0, 40 °C), 173 h; in data set [3] (pH 7, half-life, pH 7.0, 55 °C), 48 h; in data set [3] (pH 9, half-life, pH 9.0, 40 °C), 93.6 h; in data set [3] (pH 9, half-life, pH 9.0, 55 °C) it was 21.6 h.

What is called half-life is the time needed for the level to fall by half in the phase considered. The low end stands for fast loss, the high end for slow loss.
